Measured values reported in article PMC10747602, “Dose Response, Dosimetric, and Metabolic Evaluations of Replacement PFAS Perfluoro-(2,5,8-trimethyl-3,6,9-trioxadodecanoic) Acid (HFPO-TeA)” (Toxics, 2023).
Read-outs that look alike come from different tables or passages of the source.

How the values were obtained:
[1] = system: Thyroid hormones T3, rT3, and T4; test: Plasma thyroid hormone assessment; type: in vivo, Sprague Dawley rats; details: 5 days
Protocol: Information on the chemicals used in the plasma thyroid hormone analysis can be found in Supplementary Text S2 and Table S3. Thyroid hormones T3, rT3, and T4 were extracted from 20 µL of plasma (5 days) following the procedure outlined by O’Shaughnessy et al.. Briefly, plasma was spiked with internal standards ^13C6-T3, ^13C6-rT3, and ^13C6-T4, and extracted using Evolute CX SPE plates (10 mg, 1 mL, Biotage, Charlotte, NC, USA). Extracts were eluted using a positive pressure manifold. Refer to Supplementary Text S2 for complete details of the extraction method.
Targeted, quantitative analysis of the thyroid hormone levels was conducted using a 6500+ QTRAP liquid chromatography/mass spectrometer system (Sciex, Framingham, MA, USA) operated in positive ion multiple reaction monitoring (MRM) scan mode with electrospray ionization (ESI). […] Gradient elution was obtained using eluent A (0.1% formic acid; FA (aqueous)) and eluent B (MeOH with 0.1% FA). The gradient used is found in Table S4. Additional instrument parameters can be found in Table S5 and monitored transitions in Table S6. Statistical analysis is described in Supplementary Text S3. […]
Support ing Text S1: Chemicals
Chemicals used for solvent and mobile phases include methanol (MeOH), water (H2O), and acetonitrile (ACN) which were LC/MS grade and purchased from Honeywell Burdick & Jackson (Charlotte, NC, USA). Ethanol (EtOH) used as a solvent was ACS grade and purchased from Honeywell Burdick & Jackson. Ammonium formate (BioUltra purity) and ammonium acetate (99% pure) were used as mobile phase additives and obtained from Millipore Sigma (St. Louis, MO, USA). Formic acid (FA; 97.5% pure) was also used as an additive; it was purchased from Honeywell Fluka (Charlotte, NC, USA).
Detailed information for chemicals used for each analysis may be found in Table S1.
Support ing Text S2: Thyroid Hormone Chemicals and Analysis
3,3’,5-Triiodothyronine (Chemical Abstract Service Registry Number (CASRN) 6893-02-3 | U.S.
Environmental Protection Agency (U.S. EPA) Distributed Structure-Searchable Toxicity (DSSTox) substance identifier (DTXSID) DTXSID8023216 | T3; ˃ 99% pure), mass-labeled 3,3’,5-triiodothyronine […]
98% pure), mass-labeled 3,3’,5’-triiodothyronine hydrochloride (13C6-rT3; ˃ 99% pure), L-thyroxine […]
pure) were purchased from Cerilliant Corporation (Round Rock, Texas, USA).
Briefly, a 20 µL aliquot of plasma from each sample was loaded into individual wells of a 96-well collection plate. They were spiked with 5 µL of a 40 ng/mL 13C6-T3, 13C6-rT3 and 13C6-T4 mixed solution followed by 1N hydrochloric acid (HCl) (20 µL) (36.5-38%, Fisher Scientific. Waltham, MA, USA), H2O (100 µL), and a 50:50 H2O/ACN solution (vol/vol) (60 µL) containing 0.1% formic acid (FA). Samples were vortexed, incubated at 37 °C for 2 hours, and brought to room temperature. They were diluted with an aqueous 0.1% acetic acid solution (LC/MS grade, Honeywell Fluka) and vortexed. The SPE well plates (Evolute CX, 96-well SPE plate, 10 mg, 1 mL, Biotage, Charlotte, NC, USA), processed with a positive pressure manifold, were conditioned with methanol followed by an aqueous 0.1% acetic acid solution prior to sample loading with low pressure. Plate wells were washed with 0.1% acetic acid followed by methanol. Thyroid hormones were eluted into a collection plate with 2.5% ammonium hydroxide (NH4OH) (28-30%, Thermo Fisher Scientific, Waltham, MA, USA) in methanol. Extracts were then evaporated to dryness with nitrogen using a Turbovap (Biotage) then reconstituted in 100 µL of 25:75 ACN/H2O (vol/vol) with 0.1% acetic acid. Extracts were stored in amber micro-sampling vials (Agilent Technologies, Santa Clara, CA, USA) prior to instrumental analysis.
Samples were quantitated against matrix-matched calibration curves containing a minimum of 5 points spanning the range 0.005 – 25.00 ng/mL. Calibration standards were made by combining T3, rT3, and T4 analytes with the 13C6-T3, 13C6-rT3, and 13C6-T4 internal standards then with commercial rat […]

[2] = Liver-to-plasma partitioning (Kp); type: in vivo, Sprague Dawley rats; details: Sprague Dawley, rat, oral, 5 days
Protocol: Liver samples were analyzed using the same analytical assessment procedure as the plasma dosimetry samples. Matrix blanks were analyzed with each sample set. HFPO-TeA was not detected in the blanks above the limit of quantitation (LOQ) of 1.58 µM. Statistical analysis is described in Supplementary Text S3, normalization calculations are described in Supplementary Text S5 [47], and the liver-to-plasma partitioning calculation is outlined in Supplementary Text S7 [32, 50, 51]. […]
tube, and then further crashed with 200 µL ACN. This was repeated twice more to generate a final combined supernatant volume of 600 µL. Supernatants were stored at -20 °C prior to analysis.
Samples were quantitated against matrix-matched calibration curves containing a minimum of 5 points spanning the range 0.99 – 141 ng/mg liver (wet weight, ww). For the calibration standards, commercial rat liver (BioIVT) was spiked with HFPO-TeA and PFHxDA, homogenized, and extracted using the above procedure.
Support ing Text S7: Plasma-to-Liver Partitioning Calculations
Concentrations of HFPO-TeA in liver and plasma were used to calculate experimental Kp values for both sexes across all dose levels using Equation A [3-5].

SMILES: O=C(O)C(F)(OC(F)(F)C(F)(OC(F)(F)C(F)(OC(F)(F)C(F)(F)C(F)(F)F)C(F)(F)F)C(F)(F)F)C(F)(F)F (stereo not shown) [HFPO-TeA, perfluoro-(2,5,8-trimethyl-3,6,9-trioxadodecanoic) acid]
- rT3 Conc. in plasma ([1]; 0.3 mg/kg/day, F, individual rats, LOQ 0.005 ng/mL): < LOQ
- rT3 Conc. in plasma ([1]; 0.3 mg/kg/day, M, individual rats, LOQ 0.005 ng/mL): < LOQ
- rT3 Conc. in plasma ([1]; 0.9 mg/kg/day, F, individual rats, LOQ 0.005 ng/mL): < LOQ
- rT3 Conc. in plasma ([1]; 0.9 mg/kg/day, F, mean ± SD of replicates above LOQ (0.005 ng/mL)): <LOQ
- rT3 Conc. in plasma ([1]; 0.9 mg/kg/day, M, individual rats, LOQ 0.005 ng/mL): < LOQ
- rT3 Conc. in plasma ([1]; 0.9 mg/kg/day, M, mean ± SD of replicates above LOQ (0.005 ng/mL)): < LOQ
- rT3 Conc. in plasma ([1]; 2.3 mg/kg/day, F, individual rats, LOQ 0.005 ng/mL): < LOQ
- rT3 Conc. in plasma ([1]; 2.3 mg/kg/day, M, individual rats, LOQ 0.005 ng/mL): < LOQ
- rT3 Conc. in plasma ([1]; 6.3 mg/kg/day, F, individual rats, LOQ 0.005 ng/mL): < LOQ
- rT3 Conc. in plasma ([1]; 6.3 mg/kg/day, M, individual rats, LOQ 0.005 ng/mL): < LOQ
- rT3 Conc. in plasma ([1]; 17 mg/kg/day, F, individual rats, LOQ 0.005 ng/mL): < LOQ
- rT3 Conc. in plasma ([1]; 17 mg/kg/day, M, individual rats, LOQ 0.005 ng/mL): < LOQ
- Kp at 120 h ([2]; female, 0.3 mg/kg/day, F, mean ± SD n=4, read-out: Liver Kp (liver-to-plasma ratio)): 7.81 ± 4.68
- Kp at 120 h ([2]; female, 0.9 mg/kg/day, F, mean ± SD n=4, read-out: Liver Kp (liver-to-plasma ratio)): 4.04 ± 1.37
- Kp at 120 h ([2]; female, 2.3 mg/kg/day, F, mean ± SD n=4, read-out: Liver Kp (liver-to-plasma ratio)): 1.9 ± 1.47
- Kp at 120 h ([2]; female, 6.3 mg/kg/day, F, mean ± SD n=4, read-out: Liver Kp (liver-to-plasma ratio)): 1.65 ± 0.46
- Kp at 120 h ([2]; female, 17 mg/kg/day, F, mean ± SD n=4, read-out: Liver Kp (liver-to-plasma ratio)): 0.903 ± 0.145
- Kp at 120 h ([2]; male, 0.3 mg/kg/day, M, mean ± SD n=4, read-out: Liver Kp (liver-to-plasma ratio)): 7.28 ± 3.71
- Kp at 120 h ([2]; male, 0.9 mg/kg/day, M, mean ± SD n=4, read-out: Liver Kp (liver-to-plasma ratio)): 3.38 ± 1.24
- Kp at 120 h ([2]; male, 2.3 mg/kg/day, M, mean ± SD n=4, read-out: Liver Kp (liver-to-plasma ratio)): 1.54 ± 0.91
- Kp at 120 h ([2]; male, 6.3 mg/kg/day, M, mean ± SD n=4, read-out: Liver Kp (liver-to-plasma ratio)): 3.41 ± 0.6
- Kp at 120 h ([2]; male, 17 mg/kg/day, M, mean ± SD n=4, likely influenced by high toxicity and stress, read-out: Liver Kp (liver-to-plasma ratio)): 1.32 ± 0.55
